From patent US20060058307A1, “Combination of an atp-competitive inhibitor of bcr/abl kinase activity and a tyrphostin analog” (priority 2001, published 2006)
pIC50: −log10 of the molar value. Read-outs that look alike come from different tables or passages of the source. Blank lines part the entries; values can stand above or below the molecule they belong to.

How the values were obtained:
p210^bcr/abl = conditions: immune complex kinase assays; cited from earlier work
[1] = animal testing, in vivo; unpublished observations of Stinson, Narayanan and Sausville; adaphostin compared with AG957; cited from earlier work
K562 cells [2] = assay: Clonogenic assay (colony formation in 0.3% agar) of K562 cells; format: cell-based, human; conditions: 24 h
Experimental: At the completion of the incubation, cells are washed, plated in 0.3% agar and incubated for 10-14 days before colony formation is assessed. For results see under (a) in Table (A). […] At the completion of the incubation, colony formation ability is assessed as described in the last paragraph.

K562 cells [3] = assay: Morphologic changes associated with apoptosis (Hoechst 33258 staining) in K562 cells; format: cell-based, human; conditions: 24 h
Experimental: For morphological analysis, cells are fixed in 3:1 (v:v) methanol:acetic acid, stained with 1 μg/ml Hoechst 33258 in 50% (v:v) glycerol and examined under epi-illumination using a Zeiss Axioplan microscope. Two hundred to 300 cells/sample are scored for apoptotic changes (peripheral chromatin condensed or nuclear fragmentation) as described in Svingen et al., Clin. Cancer Res. 6, 237-49 (2000).
Under (c) in Table (A), K562 cells are incubated with the concentration indicated in the subsequent table in the presence of diluent or 10 μmol/l STI 571, fixed, and examined for apoptotic morphological changes.

CML CFU-G = assay: Granulocyte colony formation of circulating mononuclear cells from CML patients (CFU-G / CFU-GM); format: cell-based, human; conditions: for Number of colonies (% of control): (d) Pt. #30 CFU-GM, 24 h; for pIC50: Homo sapiens, CFU-GM, linear regression
Experimental: Clinical samples are studied under the aegis of a protocol approved by the Institutional Review Board of the Mayo Clinic in accordance with the policies of the US Department of Health and Human Services. […] CML CFU-G, 10 mL of peripheral blood is drawn from normal volunteers and consenting patients with previously untreated chronic phase CML using EDTA as an anticoagulant. […] At the completion of the incubation, samples are sedimented at 200×g for 10 min, resuspended at a concentration of 1×10^6/ml in medium C containing 50 ng/mL G-CSF, plated in 0.3% agar, and incubated for 7-8 d. Colonies containing […] are counted on an inverted phase contrast microscope.

[4] = compared with AG957; Svingen et al.; cited from earlier work

Structure (SMILES): COC(=O)c1ccc(NCc2cc(O)ccc2O)cc1 [AG957]
p210^bcr/abl activity (p210^bcr/abl): inhibit | serum half-life [1]: very short

pIC50 (CML CFU-G; read-out: IC50 for Adaphostin in presence of 20 μmol/l STI571, CFU-GM, patient number 28): 5.30 | pIC50 (CML CFU-G; read-out: IC50 for Adaphostin in presence of 20 μmol/l STI571, CFU-GM, patient number 29): 4.85 | pIC50 (CML CFU-G; read-out: IC50 for Adaphostin in presence of 20 μmol/l STI571, CFU-GM, patient number 30): 5.07 | pIC50 (CML CFU-G; read-out: IC50 for Adaphostin in presence of 20 μmol/l STI571, CFU-GM, patient number 31): 5.00 | pIC50 (CML CFU-G; read-out: IC50 for Adaphostin in presence of 20 μmol/l STI571, CFU-GM, patient number 33): 4.80 | pIC50 (CML CFU-G; read-out: IC50 for Adaphostin in presence of 20 μmol/l STI571, CFU-GM, patient number 34): 5.46 | pIC50 (CML CFU-G; read-out: IC50 for Adaphostin without STI571, CFU-GM, patient number 28): 4.89 | pIC50 (CML CFU-G; read-out: IC50 for Adaphostin without STI571, CFU-GM, patient number 29): < 4.70 | pIC50 (CML CFU-G; read-out: IC50 for Adaphostin without STI571, CFU-GM, patient number 30): 4.87 | pIC50 (CML CFU-G; read-out: IC50 for Adaphostin without STI571, CFU-GM, patient number 31): 5.07 | pIC50 (CML CFU-G; read-out: IC50 for Adaphostin without STI571, CFU-GM, patient number 33): 4.64 | pIC50 (CML CFU-G; read-out: IC50 for Adaphostin without STI571, CFU-GM, patient number 34): 4.96
Structure (SMILES): O=C(OC12CC3CC(CC(C3)C1)C2)c1ccc(NCc2cc(O)ccc2O)cc1 [Adaphostin, 4-{[(2,5-dihydroxyphenyl)methyl]amino}-benzoic acid adamantyl ester]
Number of colonies (% of control) (K562 cells [2]; (a) adaphostin 2.5 μmol/l without STI571): 56 ± 4 % of control | Number of colonies (% of control) (K562 cells [2]; (a) adaphostin 5.1 μmol/l without STI571): 46 ± 4 % of control | Number of colonies (% of control) (K562 cells [2]; (a) adaphostin 7.7 μmol/l without STI571): 27 ± 4 % of control | Number of colonies (% of control) (K562 cells [2]; (a) adaphostin 10.2 μmol/l without STI571): 10 ± 1 % of control | Number of colonies (% of control) (K562 cells [2]; (b) adaphostin 5.2 μmol/l, STI571 0): 35 ± 3 % of control | Apoptosis (% of total cells) (K562 cells [3]; (c) adaphostin 0.62 μmol/l without STI571): 2.1 % of total cells | Apoptosis (% of total cells) (K562 cells [3]; (c) adaphostin 1.25 μmol/l without STI571): 10.9 % of total cells | Apoptosis (% of total cells) (K562 cells [3]; (c) adaphostin 2.50 μmol/l without STI571): 41.8 % of total cells | Apoptosis (% of total cells) (K562 cells [3]; (c) adaphostin 3.75 μmol/l without STI571): 62.8 % of total cells | Apoptosis (% of total cells) (K562 cells [3]; (c) adaphostin 5.00 μmol/l without STI571): 84.1 % of total cells | Number of colonies (% of control) (CML CFU-G; adaphostin 3.2 μmol/l without STI571): 93 ± 1.9 % of control | Number of colonies (% of control) (CML CFU-G; adaphostin 6.4 μmol/l without STI571): 71 ± 2.2 % of control | Number of colonies (% of control) (CML CFU-G; adaphostin 12.7 μmol/l without STI571): 55 ± 2.5 % of control | Number of colonies (% of control) (CML CFU-G; adaphostin 15.9 μmol/l without STI571): 40 ± 1.2 % of control | Number of colonies (% of control) (CML CFU-G; adaphostin 19.1 μmol/l without STI571): 18 ± 0.7 % of control | potency in vitro [4]: higher | serum half-life [1]: longer

Structure (SMILES): Cc1ccc(NC(=O)c2ccc(CN3CCN(C)CC3)cc2)cc1Nc1nccc(-c2cccnc2)n1 [STI571, N-{5-[4-(4-methyl-piperazino-methyl)-benzoylamido]-2-methylphenyl}-4-(3-pyridyl)-2-pyrimidine-amine]
Apoptosis (% of total cells) (K562 cells [3]; (c) STI571 10 μmol/l, adaphostin 0): 12.9 % of total cells
